Assays:
[1] = biological target: T1, Prostaglandin G/H synthase 2 (Homo sapiens, UniProt P35354); test: In vitro inhibitory concentration against Prostaglandin G/H synthase 2 (COX-2)
T1 sequence (P35354 whole entry): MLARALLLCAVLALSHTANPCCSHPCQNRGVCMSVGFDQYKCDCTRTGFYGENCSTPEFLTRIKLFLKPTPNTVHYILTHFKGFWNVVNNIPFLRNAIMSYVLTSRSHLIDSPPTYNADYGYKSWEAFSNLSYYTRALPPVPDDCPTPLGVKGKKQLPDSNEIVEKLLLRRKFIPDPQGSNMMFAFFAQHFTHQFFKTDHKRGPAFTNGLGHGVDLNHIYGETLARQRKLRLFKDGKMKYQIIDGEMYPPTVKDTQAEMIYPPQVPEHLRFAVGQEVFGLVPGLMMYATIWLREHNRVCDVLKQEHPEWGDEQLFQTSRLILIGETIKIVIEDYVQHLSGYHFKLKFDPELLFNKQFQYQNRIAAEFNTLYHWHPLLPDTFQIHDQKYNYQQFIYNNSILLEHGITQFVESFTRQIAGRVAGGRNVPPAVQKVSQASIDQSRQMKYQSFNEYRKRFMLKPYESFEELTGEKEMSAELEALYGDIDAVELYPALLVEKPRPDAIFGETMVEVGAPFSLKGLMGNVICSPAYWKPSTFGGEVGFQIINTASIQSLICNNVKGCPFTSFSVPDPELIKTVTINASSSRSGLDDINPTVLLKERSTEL

[2] = In vitro inhibitory concentration against Prostaglandin G/H synthase 1 (COX-1)
[3] = Ratio of inhibitory concentration against prostaglandin G/H synthase 1 to that of prostaglandin G/H synthase 2

SMILES	IC50 [1]	Log IC50 [2]	Ratio [3]
COc1ccc2c(c1F)CSc1c(C(F)(F)F)nn(-c3ccc(S(C)(=O)=O)cc3)c1-2	75.9 nM		
COc1ccc2c(c1F)CSc1c(C(F)F)nn(-c3ccc(S(N)(=O)=O)cc3)c1-2	32.4 nM		
COc1ccc2c(c1F)C[S+]([O-])c1c(C(F)(F)F)nn(-c3ccc(S(N)(=O)=O)cc3)c1-2 (stereo not drawn)	1510 nM		
NS(=O)(=O)c1ccc(-n2nc(C(F)(F)F)c3c2-c2ccc(F)cc2CS3)cc1		-6.57	0.84
COc1ccc2c(c1F)CSc1c(C(F)(F)F)nn(-c3ccc(S(N)(=O)=O)cc3)c1-2	8.91 nM	-5.56	2.48
NS(=O)(=O)c1ccc(-n2nc(C(F)(F)F)c3c2-c2ccccc2SC3)cc1		-5.01	
Cc1ccc2c(c1)CSc1c(C(F)(F)F)nn(-c3ccc(S(N)(=O)=O)cc3)c1-2		-6.1	1.56
NS(=O)(=O)c1ccc(-n2nc(C(F)(F)F)c3c2-c2cccc(F)c2CS3)cc1	20.9 nM	-5.2	2.47
Cc1ccc2c(c1F)CSc1c(C(F)(F)F)nn(-c3ccc(S(N)(=O)=O)cc3)c1-2	15.8 nM	-4.95	2.84
N#Cc1nn(-c2ccc(S(N)(=O)=O)cc2)c2c1SCc1cc(F)ccc1-2		-6.12	0.7
COc1ccc2c(c1)CSc1c(C(F)(F)F)nn(-c3ccc(S(N)(=O)=O)cc3)c1-2		-6.52	1.36
NS(=O)(=O)c1ccc(-n2nc(C(F)(F)F)c3c2-c2ccccc2CS3)cc1		-6.4	1.3
NS(=O)(=O)c1ccc(-n2nc(C(F)(F)F)c3c2-c2ccc(F)c(F)c2CS3)cc1	6.03 nM	-5.57	2.58
NS(=O)(=O)c1ccc(-n2nc(C(F)(F)F)c3c2-c2ccccc2OC3)cc1		-5.15	0.72

Source: ChEMBL document CHEMBL1143536, “QSAR analyses of conformationally restricted 1,5-diaryl pyrazoles as selective COX-2 inhibitors: application of connection table representation of ligands” (Bioorg Med Chem Lett, 2005)
